Test results taken from patent publication US20230131966A1, “FUNGICIDAL AMIDES” (FMC Corporation, priority 2020, published 2023).

What was measured:
Format in all cases: in vivo
[1] = system: Botrytis cinerea; assay: Test E: tomato Botrytis control on tomato seedlings; conditions: for Test E disease control rating / pest or weed control at 250 ppm: 100 = 100% disease control, 0 = no control; for pest or weed control at 250 ppm: Botrytis cinerea, read-out: Test E disease control rating
[2] = system: Phytophthora infestans; assay: whole plant or invertebrate; conditions: tomato seedlings; for Test F disease control rating / pest or weed control at 250 ppm: 100 = 100% disease control, 0 = no control; for pest or weed control at 250 ppm: Phytophthora infestans, in Solanum lycopersicum, read-out: Test F disease control rating, 250 ppm
[3] = system: Puccinia recondita f. sp. tritici; assay: Test B: wheat leaf rust control on wheat seedlings; conditions: for Test B disease control rating / pest or weed control at 250 ppm: wheat seedlings, 100 = 100% disease control, 0 = no control; for pest or weed control at 250 ppm: Puccinia recondita, read-out: Test B disease control rating
[4] = system: Zymoseptoria tritici; assay: Test C: wheat leaf blotch control on wheat seedlings; conditions: for Test C disease control rating / pest or weed control at 250 ppm: wheat seedlings, 100 = 100% disease control, 0 = no control; for pest or weed control at 250 ppm: Zymoseptoria tritici, read-out: Test C disease control rating
[5] = system: Erysiphe graminis f. sp. tritici; assay: Test G: wheat powdery mildew control on wheat seedlings; conditions: for Test G disease control rating / pest or weed control at 250 ppm: 100 = 100% disease control, 0 = no control; for pest or weed control at 250 ppm: Blumeria graminis, read-out: Test G disease control rating
[6] = system: Phakopsora pachyrhizi; assay: Test A: Asian soybean rust control on soybean seedlings; conditions: for Test A disease control rating / pest or weed control at 250 ppm: soybean seedlings, 100 = 100% disease control, 0 = no control; for pest or weed control at 250 ppm: Phakopsora pachyrhizi, read-out: Test A disease control rating
[7] = system: Plasmopara viticola; assay: Test D: grape downy mildew control on grape seedlings; conditions: for Test D disease control rating / pest or weed control at 250 ppm: 100 = 100% disease control, 0 = no control; for pest or weed control at 250 ppm: Plasmopara viticola, read-out: Test D disease control rating
[8] = rate 250 ppm, relative to the controls

Row | SMILES | Test E disease control rating ([1]; 250 ppm) | Test F disease control rating ([2]; 250 ppm) | Test B disease control rating ([3]; 250 ppm) | Test C disease control rating ([4]; 250 ppm) | Test G disease control rating ([5]; 250 ppm) | Test A disease control rating ([6]; 250 ppm) | Test D disease control rating ([7]; 250 ppm) | also measured
1 | COc1ccnc(C(=O)NC(C)C(=O)OC(C)C2CCC(c3ccccc3)CC2)c1O (mixture of isomers) [Compound 103] | 0% | 0% | 100% | 99% | 0% | 100% | 74% | 
2 | COc1ccnc(C(=O)N[C@@H](C)C(=O)OC(C)C2CCCCC2)c1O (mixture of isomers) [Compound 30, N-[(3-hydroxy-4-methoxy-2-pyridinyl)carbonyl]-L-alanine 1-cyclohexylethyl ester] |  |  |  |  |  |  |  | pest or weed control at 250 ppm ([1]; 250 ppm): 0%; pest or weed control at 250 ppm [2]: 0%; pest or weed control at 250 ppm ([3]; 250 ppm): 100%; pest or weed control at 250 ppm ([4]; 250 ppm): 97%; pest or weed control at 250 ppm ([5]; 250 ppm): 0%; pest or weed control at 250 ppm ([6]; 250 ppm): 100%; pest or weed control at 250 ppm ([7]; 250 ppm): 1%
3 | COc1ccnc(C(=O)N[C@@H](C)C(=O)OC(C)c2ccc(-n3ccc(C(F)(F)F)n3)cc2Cc2ccccc2)c1OC(C)=O (stereo partly shown) [Compound 94] | 0% | 0% | 92% | 82% | 0% | 38% | 10% | 
4 | COc1ccnc(C(=O)NC(C)C(=O)OC(C)c2ccccc2C(F)(F)F)c1O (mixture of isomers) [Compound 17] |  |  |  |  |  |  |  | Test E disease control rating ([1]; 150 ppm): 0%; Test F disease control rating ([2]; 150 ppm): 0%; Test B disease control rating ([3]; 150 ppm): 41%; Test C disease control rating ([4]; 150 ppm): 92%; Test G disease control rating ([5]; 150 ppm): 0%; Test A disease control rating ([6]; 150 ppm): 66%; Test D disease control rating ([7]; 150 ppm): 23%
5 | CC(NC(=O)c1cccc(NC=O)c1O)C(=O)OC(C)c1cccc(OC2CCC(C)(C)CC2)c1 (mixture of isomers) [Compound 160] | 0% | 80% | 92% | 92% | 0% | 100% | 98% | 
6 | COc1ccnc(C(=O)N[C@@H](C)C(=O)OC(C)c2ccc(C3CCCCC3)cc2)c1O (mixture of isomers) [Compound 32, N-[(3-hydroxy-4-methoxy-2-pyridinyl)carbonyl]-L-alanine 1-(4-cyclohexylphenyl)ethyl ester] |  |  |  |  |  |  |  | pest or weed control at 250 ppm ([1]; 250 ppm): 0%; pest or weed control at 250 ppm [2]: 0%; pest or weed control at 250 ppm ([3]; 250 ppm): 99%; pest or weed control at 250 ppm ([4]; 250 ppm): 86%; pest or weed control at 250 ppm ([5]; 250 ppm): 0%; pest or weed control at 250 ppm ([6]; 250 ppm): 100%; pest or weed control at 250 ppm ([7]; 250 ppm): 18%
7 | COc1ccnc(C(=O)N[C@@H](C)C(=O)OC(C)c2ccc(C3CC3)cc2)c1O (mixture of isomers) [Compound 66, N-[(3-hydroxy-4-methoxy-2-pyridinyl)carbonyl]-L-alanine 1-(4-cyclopropylphenyl)ethyl ester] |  |  |  |  |  |  |  | pest or weed control at 250 ppm ([1]; 250 ppm): 0%; pest or weed control at 250 ppm [2]: 0%; pest or weed control at 250 ppm ([3]; 250 ppm): 100%; pest or weed control at 250 ppm ([4]; 250 ppm): 73%; pest or weed control at 250 ppm ([5]; 250 ppm): 21%; pest or weed control at 250 ppm ([6]; 250 ppm): 100%; pest or weed control at 250 ppm ([7]; 250 ppm): 93%
8 | CCC(OC(=O)[C@H](C)NC(=O)c1nccc(OC)c1OCOC(C)=O)C1CCCCC1 (single isomer, unassigned) [Compound 189] |  |  |  |  |  |  |  | Test E disease control rating (100 = 100% disease control, 0 = no disease control) [1, 8]: 0%; Test F disease control rating (100 = 100% disease control, 0 = no disease control) [2, 8]: 0%; Test B disease control rating (100 = 100% disease control, 0 = no disease control) [3, 8]: 100%; Test C disease control rating (100 = 100% disease control, 0 = no disease control) [4, 8]: 98%; Test G disease control rating (100 = 100% disease control, 0 = no disease control) [5, 8]: 26%; Test A disease control rating (100 = 100% disease control, 0 = no disease control) [6, 8]: 100%; Test D disease control rating (100 = 100% disease control, 0 = no disease control) [7, 8]: 46%
9 | COc1ccnc(C(=O)NC(C)C(=O)OC(C)c2ccc(-n3ccc(C(F)(F)F)n3)cc2-n2ccc(C(F)(F)F)n2)c1O (mixture of isomers) [Compound 89] | 0% | 0% | 0% | 0% | 0% | 0% | 16% | 
10 | COc1ccnc(C(=O)NC(C)C(=O)OC(C)c2ccc(C(F)(F)F)cc2)c1OC(C)=O (mixture of isomers) [Compound 35] | 0% | 0% | 100% | 80% | 0% | 100% | 68% | 
11 | COc1ccnc(C(=O)NC(C)C(=O)OC(C)c2ccccc2Oc2ccc(F)cc2)c1OC(C)=O (mixture of isomers) [Compound 61] | 0% | 0% | 55% | 0% | 0% | 0% | 15% | 
12 | COc1cccc(C(=O)NC(C)C(=O)OC(C)C2CCCCC2)c1OC(C)=O (mixture of isomers) [Compound 92] | 0% | 0% | 0% | 0% | 0% | 0% | 60% | 
13 | COc1ccnc(C(=O)N[C@@H](C)C(=O)OC(C)c2ccc(C(C)C)cc2)c1OC(C)=O (stereo partly shown) [Compound 117] | 0% | 0% | 100% | 94% | 0% | 100% | 71% | 
14 | COc1ccnc(C(=O)NC(C)C(=O)OC(C)c2ccc(-n3ccc(C(F)(F)F)n3)cc2-n2ccc(C(F)(F)F)n2)c1OC(C)=O (mixture of isomers) [Compound 90] | 0% | 0% | 55% | 0% | 0% | 0% | 17% | 
15 | COc1ccnc(C(=O)N[C@@H](C)C(=O)OC(C)c2ccc(F)cc2Cc2ccccc2)c1O (single isomer, unassigned) [Compound 24] | 0% | 0% | 68% | 5% | 0% | 97% | 61% | 
16 | COc1ccnc(C(=O)N[C@@H](C)C(=O)OC(C)c2ccc(C3CCCCC3)cc2)c1OCOC(=O)C(C)C (single isomer, unassigned) [Compound 144] | 0% | 0% | 86% | 93% | 0% | 77% | 35% | 
